Earlier results in PMC12383022, “Discovery of a Novel Antimicrobial Peptide from Paenibacillus sp. Na14 with Potent Activity Against Gram-Negative Bacteria and Genomic Insights into Its Biosynthetic Pathway” (Antibiotics, 2025).

Key:
E. coli ATCC 25922 = settings: cited from earlier work
MRSA = settings: 10× MIC; cited from earlier work
P. aeruginosa LMG6395 = settings: cited from earlier work
MRSA ATCC 15975 = settings: cited from earlier work
K. pneumoniae LMG20218 = settings: cited from earlier work

brevibacillin 2V
MIC, E. coli ATCC 25922 (E. coli ATCC 25922): 16 µg/mL | time to complete killing of MRSA (MRSA): ≤ 6 h | MIC, P. aeruginosa LMG6395 (P. aeruginosa LMG6395): 64 µg/mL | MIC, MRSA ATCC 15975 (MRSA ATCC 15975): 2 µg/mL | MIC, K. pneumoniae LMG20218 (K. pneumoniae LMG20218): 32 µg/mL
